Measurements published in patent US20190239511A1, “Synergistic Combinations Of Monochloramine And Peroxide Compound, And Methods Of Using The Same For Microbial Control” (Buckman Laboratories International, Inc., priority 2018, published 2019).

Tested on: bacteria in 35 wt % corn slurry solution
Experiment: Bacterial growth control in corn slurry, bacteria count and reduction (Example 2, Table 1 and FIG. 5)
Type: cell-based
Protocol: The effect of combined amounts of hydrogen peroxide and monochloramine at other tested addition amounts on bacterial growth control and their addition timing was further studied using laboratory experiments. For this additional study, laboratory experiments were performed using hydrogen peroxide at dosages of 100 ppm and 200 ppm, and monochloramine (“Oxamine”) at dosages of 25 ppm, 50 ppm, 75 ppm, and 100 ppm. The time between peroxide and monochloramine addition was up to 10 minutes (i.e., 0-10 minutes). All experiments were carried out with 35 wt % corn slurry solution.

SMILES	% Reduction (25 ppm Oxamine alone) [%]	Bacteria Count (25 ppm Oxamine alone)	% Reduction (50 ppm Oxamine alone) [%]	Bacteria Count (50 ppm Oxamine alone)	% Reduction (75 ppm Oxamine alone) [%]	Bacteria Count (75 ppm Oxamine alone)	% Reduction (100 ppm Oxamine alone) [%]	Bacteria Count (100 ppm Oxamine alone)	% Reduction (100 ppm H2O2 alone) [%]	Bacteria Count (100 ppm H2O2 alone)	% Reduction (200 ppm H2O2 alone) [%]	Bacteria Count (200 ppm H2O2 alone)
NCl [Oxamine, monochloramine]	98.99	5.E+04	99.93	4.E+03	99.97	1.E+03	99.98	9.E+02	–	–	–	–
OO [H2O2, hydrogen peroxide]	–	–	–	–	–	–	–	–	0.00	5.E+06	18.37	4.E+06
